Data: US20260262643A1, “HERBICIDAL BENZOXAZINES” (FMC CORPORATION, priority 2022, published 2026)

Columns and labels:
corn [1] = assay: Test A preemergence; assay type: in vivo, Zea mays
In short: (§1)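 Greenhouse pot test, 10 days. Compound (non-phytotoxic solvent, surfactant) sprayed on soil at seeding or on seedlings at one- to two-leaf stage. Visual injury rated 0–100 against untreated plants.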

foxtail, giant [2] = assay: Test A preemergence; assay type: in vivo, Setaria faberi
In short: as §1

goosegrass [3] = assay: Test A preemergence; assay type: in vivo, Eleusine indica
In short: as §1

kochia [4] = assay: Test A preemergence; assay type: in vivo, Bassia scoparia
In short: as §1

oat, wild [5] = assay: Test A preemergence; assay type: in vivo, Avena fatua
In short: as §1

pigweed, palmer [6] = assay: Test A preemergence; assay type: in vivo, Amaranthus palmeri
In short: as §1

ragweed [7] = assay: Test A preemergence; assay type: in vivo, Ambrosia artemisiifolia
In short: as §1

ryegrass, Italian [8] = assay: Test A preemergence; assay type: in vivo, Lolium multiflorum
In short: as §1

soybean [9] = assay: Test A preemergence; assay type: in vivo, Glycine max
In short: as §1

wheat [10] = assay: Test A preemergence; assay type: in vivo, Triticum aestivum
In short: as §1

blackgrass = assay: Test A postemergence; assay type: in vivo, Alopecurus myosuroides
In short: as §1

corn [11] = assay: Test A postemergence; assay type: in vivo, Zea mays; details: postemergence, 10 days, visual injury, 0 to 100 scale (0 no effect, 100 complete control)
In short: as §1

foxtail, giant [12] = assay: Test A postemergence; assay type: in vivo, Setaria faberi; details: postemergence, 10 days, visual injury, 0 to 100 scale (0 no effect, 100 complete control)
In short: as §1

goosegrass [13] = assay: Test A postemergence; assay type: in vivo, Eleusine indica; details: postemergence, 10 days, visual injury, 0 to 100 scale (0 no effect, 100 complete control)
In short: as §1

kochia [14] = assay: Test A postemergence; assay type: in vivo, Bassia scoparia; details: postemergence, 10 days, visual injury, 0 to 100 scale (0 no effect, 100 complete control)
In short: as §1

oat, wild [15] = assay: Test A postemergence; assay type: in vivo, Avena fatua; details: 500 g ai/ha, postemergence, 10 days, visual injury, 0 to 100 scale (0 no effect, 100 complete control)
In short: as §1

pigweed, palmer [16] = assay: Test A postemergence; assay type: in vivo, Amaranthus palmeri; details: 500 g ai/ha, postemergence, 10 days, visual injury, 0 to 100 scale (0 no effect, 100 complete control)
In short: as §1

ragweed [17] = assay: Test A postemergence; assay type: in vivo, Ambrosia artemisiifolia; details: 500 g ai/ha, postemergence, 10 days, visual injury, 0 to 100 scale (0 no effect, 100 complete control)
In short: as §1

ryegrass, Italian [18] = assay: Test A postemergence; assay type: in vivo, Lolium multiflorum; details: 500 g ai/ha, postemergence, 10 days, visual injury, 0 to 100 scale (0 no effect, 100 complete control)
In short: as §1

soybean [19] = assay: Test A postemergence; assay type: in vivo, Glycine max; details: 500 g ai/ha, postemergence, 10 days, visual injury, 0 to 100 scale (0 no effect, 100 complete control)
In short: as §1

wheat [20] = assay: Test A postemergence; assay type: in vivo, Triticum aestivum; details: 500 g ai/ha, postemergence, 10 days, visual injury, 0 to 100 scale (0 no effect, 100 complete control)
In short: as §1

galium = assay: Test A postemergence; assay type: in vivo, Galium aparine; details: postemergence, 10 days, visual injury, 0 to 100 scale (0 no effect, 100 complete control)
In short: as §1

horseweed = assay: Test A postemergence; assay type: in vivo, Erigeron canadensis; details: postemergence, 10 days, visual injury, 0 to 100 scale (0 no effect, 100 complete control)
In short: as §1

barnyardgrass = assay: Test B flooded paddy test; assay type: in vivo, Echinochloa crus-galli; details: 250 g ai/ha, Flood, 13 days, 0 to 100 scale (0 no effect, 100 complete control)
In short: (§2)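 Percent weed or crop control, judged by eye on a 0–100 scale 13 days post-treatment, reflects compound added to a 3 cm flood maintained over 2-leaf plants in the greenhouse. Missing entries are marked with a dash.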

ducksalad = assay: Test B flooded paddy test; assay type: in vivo, Heteranthera limosa; details: 250 g ai/ha, Flood, 13 days, 0 to 100 scale (0 no effect, 100 complete control)
In short: as §2

rice = assay: Test B flooded paddy test; assay type: in vivo, Oryza sativa; details: 250 g ai/ha, Flood, 13 days, 0 to 100 scale (0 no effect, 100 complete control)
In short: as §2

sedge, umbrella = assay: Test B flooded paddy test; assay type: in vivo, Cyperus difformis; details: 250 g ai/ha, Flood, 13 days, 0 to 100 scale (0 no effect, 100 complete control)
In short: as §2

[21] = 125 g ai/ha, visual injury after 10 days, 0 to 100 scale, 0 is no effect, 100 is complete control
[22] = 500 g ai/ha, 0 to 100 scale (0 no effect, 100 complete control), 10 days

## CC(C)c1ncn(-c2cccc(C(=O)N3C[C@H](C)Oc4c(Cl)cccc43)c2)n1 [Compound 78]
Corn [1]; [21]
  Plant response rating, Corn: 30
Corn [1]; [22]
  Plant response rating, Corn: 30
foxtail, giant [2]; [21]
  Plant response rating, Foxtail, Giant: 100
foxtail, giant [2]; [22]
  Plant response rating, Foxtail, Giant: 100
Goosegrass [3]; [21]
  Plant response rating, Goosegrass: 90
Goosegrass [3]; [22]
  Plant response rating, Goosegrass: 100
Kochia [4]; [21]
  Plant response rating, Kochia: 90
Kochia [4]; [22]
  Plant response rating, Kochia: 100
oat, wild [5]; [21]
  Plant response rating, Oat, Wild: 80
oat, wild [5]; [22]
  Plant response rating, Oat, Wild: 90
pigweed, palmer [6]; [21]
  Plant response rating, Pigweed, Palmer: 100
pigweed, palmer [6]; [22]
  Plant response rating, Pigweed, Palmer: 100
Ragweed [7]; [21]
  Plant response rating, Ragweed: 0
Ragweed [7]; [22]
  Plant response rating, Ragweed: 90
ryegrass, Italian [8]; [21]
  Plant response rating, Ryegrass, Italian: 90
ryegrass, Italian [8]; [22]
  Plant response rating, Ryegrass, Italian: 100
Soybean [9]; [21]
  Plant response rating, Soybean: 0
Soybean [9]; [22]
  Plant response rating, Soybean: 100
Wheat [10]; [21]
  Plant response rating, Wheat: 20
Wheat [10]; [22]
  Plant response rating, Wheat: 80
blackgrass; 125 g ai/ha, postemergence, 10 days, visual injury, 0 to 100 scale (0 no effect, 100 complete control)
  Plant response rating, Blackgrass: 50
blackgrass; 500 g ai/ha, Postemergence, 0 to 100 scale
  Plant response rating, Blackgrass: 90
Corn [11]; 125 g ai/ha
  Plant response rating, Corn: 10
Corn [11]; 500 g ai/ha
  Plant response rating, Corn: 60
foxtail, giant [12]; 125 g ai/ha
  Plant response rating, Foxtail, Giant: 50
foxtail, giant [12]; 500 g ai/ha
  Plant response rating, Foxtail, Giant: 90
Goosegrass [13]; 125 g ai/ha
  Plant response rating, Goosegrass: 40
Goosegrass [13]; 500 g ai/ha
  Plant response rating, Goosegrass: 80
Kochia [14]; 125 g ai/ha
  Plant response rating, Kochia: 70
Kochia [14]; 500 g ai/ha
  Plant response rating, Kochia: 100
oat, wild [15]
  Plant response rating, Oat, Wild: 90
pigweed, palmer [16]
  Plant response rating, Pigweed, Palmer: 90
Ragweed [17]
  Plant response rating, Ragweed: 80
ryegrass, Italian [18]
  Plant response rating, Ryegrass, Italian: 100
Soybean [19]
  Plant response rating, Soybean: 100
Wheat [20]
  Plant response rating, Wheat: 50
galium; 125 g ai/ha
  Plant response rating, Galium: 100
galium; 500 g ai/ha
  Plant response rating, Galium: 100
horseweed; 125 g ai/ha
  Plant response rating, Horseweed: 0
horseweed; 500 g ai/ha
  Plant response rating, Horseweed: 0
barnyardgrass
  Plant response rating, Barnyardgrass: 0
ducksalad
  Plant response rating, Ducksalad: 75
rice
  Plant response rating, Rice: 0
sedge, umbrella
  Plant response rating, Sedge, Umbrella: 0
